Test results as given in patent publication US20260265246A1 (ICAHN SCHOOL OF MEDICINE AT MOUNT SINAI, priority 2021, published 2026).
Read-outs that look alike come from different tables or passages of the source.

Experiments:
[1] = target: T1, 5HT2A receptor (Homo sapiens, UniProt P28223); assay: biochemical; type: binding; set-up: expressed in transfected cells; crude membranes
[2] = target: T1, 5HT2A receptor; assay: cell-based; set-up: expressed in transfected cells; host or cells: HEK293T cells, transient co-transfection; settings: for Emax: HEK-293T
[3] = 5HT2A Ki (nM), secondary binding assay, Cheng-Prusoff
[4] = 5HTA Gq EC50 (nM), BRET2 Gαq dissociation, HEK293T
[5] = read-out: 5HTA Gq Emax (%), BRET2 Gαq dissociation, HEK293T, normalized to 5-HT
[6] = 5HT2A Ki (nM), secondary radioligand binding, Ki from IC50 by Cheng-Prusoff
[7] = 5HT2A Gq EC50 (nM), BRET2 Gαq dissociation, HEK293T cells
[8] = BRET2 Gαq dissociation, HEK293T cells, normalized to 5-HT, read-out: 5HT2A Gq Emax (%)
[9] = BRET2 Gαq dissociation, HEK293T, normalized to 5-HT, read-out: 5HTA Gq Emax (%)
[10] = BRET2 Gαq dissociation, HEK293T, read-out: 5HTA Gq EC50
[11] = secondary binding assay, Cheng-Prusoff, read-out: 5HT2A Ki

T1 sequence (P28223 whole entry): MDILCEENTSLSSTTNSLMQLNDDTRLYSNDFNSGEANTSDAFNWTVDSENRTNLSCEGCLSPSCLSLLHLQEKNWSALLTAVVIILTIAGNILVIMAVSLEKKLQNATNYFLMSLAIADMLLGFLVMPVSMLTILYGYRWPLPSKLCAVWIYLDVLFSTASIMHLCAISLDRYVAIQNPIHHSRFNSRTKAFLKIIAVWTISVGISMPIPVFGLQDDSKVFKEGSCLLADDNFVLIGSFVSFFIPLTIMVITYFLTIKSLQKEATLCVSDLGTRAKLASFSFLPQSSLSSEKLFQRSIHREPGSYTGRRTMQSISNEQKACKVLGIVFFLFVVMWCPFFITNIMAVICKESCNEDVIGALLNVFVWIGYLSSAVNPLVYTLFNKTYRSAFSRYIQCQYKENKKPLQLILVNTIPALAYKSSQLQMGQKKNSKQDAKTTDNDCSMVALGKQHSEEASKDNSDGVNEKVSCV

`Clc1cccc2c(C3=CC4CCC3NC4)n[nH]c12` (stereo not drawn) [Example 223, 6-(7-chloro-1H-indazol-3-yl)-2-azabicyclo[2.2.2]oct-5-ene] was tested, and the Ki [1, 3] was 1920 nM, the EC50 [2, 4] was 717 nM and the Emax [2, 5] was 89.7%.
In the case of `C1=C(c2c[nH]c3ncc(-c4ccccc4)cc23)CNCC1` [Example 4, 5-phenyl-3-(1,2,5,6-tetrahydropyridin-3-yl)-1H-pyrrolo[2,3-b]pyridine], the Ki [1, 6] is reported as 613 nM, the EC50 [2, 7] is reported as 294 nM and the Emax [2, 8] is reported as 67%.
Compound `CN1CC2CC2(c2n[nH]c3c(Cl)cccc23)C1` (stereo not drawn) [Example 183, 7-chloro-3-(3-methyl-3-azabicyclo[3.1.0]hexan-1-yl)-1H-indazole] has a Ki [1, 3] of 595 nM, an EC50 [2, 4] of 251 nM and an Emax [2, 5] of 69.7%.
In the case of `COc1cccc2c(C3=CCCN(Cc4ccccc4)C3)c[nH]c12` [Example 71, 3-(1-benzyl-1,2,5,6-tetrahydropyridin-3-yl)-7-methoxy-1H-indole], the Ki [1, 6] is reported as 448 nM, the EC50 [2, 7] is reported as 530 nM and the Emax [2, 8] is reported as 65.2%.
With `CC(F)(F)CN1CCC=C(c2n[nH]c3c(Cl)cccc23)C1` [Example 163, 7-chloro-3-(1-(2,2-difluoropropyl)-1,2,5,6-tetrahydropyridin-3-yl)-1H-indazole] the Ki [1, 3] was > 10000 nM, the EC50 [2, 4] was 604 nM and the Emax [2, 9] was 82.4%.
For `CN1CCC=C(c2c[nH]c3cnccc23)C1` [Example 135, 3-(1-methyl-1,2,5,6-tetrahydropyridin-3-yl)-1H-pyrrolo[2,3-c]pyridine], the Ki [1, 3] was 3540 nM, the EC50 [2, 4] was 1610 nM and the Emax [2, 9] was 77.8%.
In the case of `CN1CCC=C(c2c[nH]c3c(O)cccc23)C1` [Example 60, 3-(1-methyl-1,2,5,6-tetrahydropyridin-3-yl)-1H-indol-7-ol], the Ki [1, 6] is reported as 795 nM, the EC50 [2, 7] is reported as 440 nM and the Emax [2, 8] is reported as 64.3%.
Compound `Cc1ccc2[nH]cc(C3=CCCNC3)c2n1` [Example 139, 5-methyl-3-(1,2,5,6-tetrahydropyridin-3-yl)-1H-pyrrolo[3,2-b]pyridine] has a Ki [1, 3] of 4180 nM, an EC50 [2, 4] of 785 nM and an Emax [2, 9] of 112%.
`COc1cccc2c(C3=CCCN(C)C3)c[nH]c12` [Example 53, 7-methoxy-3-(1-methyl-1,2,5,6-tetrahydropyridin-3-yl)-1H-indole] showed a Ki [1, 6] of 374 nM, an EC50 [2, 7] of 166 nM and an Emax [2, 8] of 77.8%.
In the case of `CCc1cccc2c(C3=CCCNC3)c(Cl)[nH]c12` [Example 66, 2-chloro-7-ethyl-3-(1,2,5,6-tetrahydropyridin-3-yl)-1H-indole], the Ki [1, 6] is reported as 115 nM, the EC50 [2, 7] is reported as 213 nM and the Emax [2, 8] is reported as 79%.
Compound `Clc1cccc2c(C3=CCCCNC3)c[nH]c12` [Example 212, 7-chloro-3-(2,5,6,7-tetrahydro-1H-azepin-3-yl)-1H-indole] has a Ki [1, 3] of 6240 nM, an EC50 [2, 4] of 655 nM and an Emax [2, 5] of 72.5%.
`CN1CCC2CC2(c2n[nH]c3c(Cl)cc(F)cc23)C1` (stereo not drawn) [Example 198, 7-chloro-5-fluoro-3-(3-methyl-3-azabicyclo[4.1.0]heptan-1-yl)-1H-indazole] was tested, and the Ki [1, 3] was 1450 nM, the EC50 [2, 4] was 1160 nM and the Emax [2, 9] was 45.1%.
Compound `CCCN1CCC=C(c2n[nH]c3c(Cl)cc(F)cc23)C1` [Example 173, 7-chloro-5-fluoro-3-(1-propyl-1,2,5,6-tetrahydropyridin-3-yl)-1H-indazole] has a Ki [1, 3] of 839 nM, an EC50 [2, 10] of 84.6 nM and an Emax [2, 9] of 57.3%.
`FC1(F)C2CCNCC21c1n[nH]c2c(Cl)cccc12` (stereo not drawn) [Example 188, 7-chloro-3-(7,7-difluoro-3-azabicyclo[4.1.0]heptan-1-yl)-1H-indazole] was tested, and the Ki [1, 3] was 2100 nM, the EC50 [2, 4] was 1460 nM and the Emax [2, 5] was 83.7%.
`Cn1cc(C2=CCCNC2)c2cccnc21` [Example 47, 1-methyl-3-(1,2,5,6-tetrahydropyridin-3-yl)-1H-pyrrolo[2,3-b]pyridine] showed a Ki [1, 6] of 796 nM, an EC50 [2, 7] of 379 nM and an Emax [2, 8] of 48.7%.
Work on `Fc1cc(F)c2[nH]cc(C3CNC3)c2c1` [Example 264, 3-(azetidin-3-yl)-5,7-difluoro-1H-indole] yielded a Ki [1, 11] of 98.8 nM, an EC50 [2, 4] of 165 nM and an Emax [2, 9] of 44.7%.
`CCC(C)N1CCC=C(c2n[nH]c3c(Cl)cccc23)C1` (stereo not drawn) [Example 167, 3-(1-(sec-butyl)-1,2,5,6-tetrahydropyridin-3-yl)-7-chloro-1H-indazole] was tested, and the Ki [1, 3] was 525 nM, the EC50 [2, 4] was 173 nM and the Emax [2, 9] was 25.7%.
With `Clc1cccc2c(C34CCNCC3C4)n[nH]c12` (stereo not drawn) [Example 228, 3-(3-azabicyclo[4.1.0]heptan-6-yl)-7-chloro-1H-indazole] the Ki [1, 3] was 5240 nM, the EC50 [2, 4] was 1070 nM and the Emax [2, 9] was 76.4%.
Work on `Cc1cc(Cl)cc2c(C3CNC3)c[nH]c12` [Example 263, 3-(azetidin-3-yl)-5-chloro-7-methyl-1H-indole] yielded a Ki [1, 3] of 244 nM, an EC50 [2, 4] of 127 nM and an Emax [2, 9] of 63.7%.
`Fc1cc(Cl)c2[nH]nc(C34CNCCC3C4)c2c1` (stereo not drawn) [Example 196, 3-(3-azabicyclo[4.1.0]heptan-1-yl)-7-chloro-5-fluoro-1H-indazole] gave a Ki [1, 3] of 910 nM, an EC50 [2, 4] of 220 nM and an Emax [2, 9] of 67%.
Work on `Clc1cccc2c(C3=CCCN(CC4CC4)C3)n[nH]c12` [Example 151, 7-chloro-3-(1-(cyclopropylmethyl)-1,2,5,6-tetrahydropyridin-3-yl)-1H-indazole] yielded a Ki [1, 3] of 198 nM, an EC50 [2, 4] of 61.1 nM and an Emax [2, 5] of 38.8%.
`c1cnc2[nH]cc(C34CNCCC3C4)c2c1` (stereo not drawn) [Example 268, 3-(3-azabicyclo[4.1.0]heptan-1-yl)-1H-pyrrolo[2,3-b]pyridine] showed a Ki [1, 3] of 5940 nM, an EC50 [2, 4] of 740 nM and an Emax [2, 9] of 98%.
Work on `Cc1cccc2c(C34CNCCC3C4)c[nH]c12` (stereo not drawn) [Example 271, 3-(3-azabicyclo[4.1.0]heptan-1-yl)-7-methyl-1H-indole] yielded a Ki [1, 3] of 3150 nM, an EC50 [2, 4] of 327 nM and an Emax [2, 9] of 80.1%.
Compound `CN1CCC=C(c2n[nH]c3cc(Cl)ccc23)C1` [Example 94, 6-chloro-3-(1-methyl-1,2,5,6-tetrahydropyridin-3-yl)-1H-indazole] has a Ki [1, 6] of 1300 nM, an EC50 [2, 7] of 309 nM and an Emax [2, 8] of 72.1%.
`Fc1cc(Cl)c2[nH]nc(C34CNCCC3C4(F)F)c2c1` (stereo not drawn) [Example 191, 7-chloro-3-(7,7-difluoro-3-azabicyclo[4.1.0]heptan-1-yl)-5-fluoro-1H-indazole] was tested, and the Ki [1, 3] was 3040 nM, the EC50 [2, 4] was 1620 nM and the Emax [2, 9] was 83%.
`Cc1ccc2[nH]cc(C3=CCCN(C)C3)c2n1` [Example 140, 5-methyl-3-(1-methyl-1,2,5,6-tetrahydropyridin-3-yl)-1H-pyrrolo[3,2-b]pyridine] was tested, and the Ki [1, 3] was 1130 nM, the EC50 [2, 4] was 247 nM and the Emax [2, 9] was 62.6%.
Work on `Fc1cccc2c(C3CNC3)c[nH]c12` [Example 259, 3-(azetidin-3-yl)-7-fluoro-1H-indole] yielded a Ki [1, 3] of 168 nM, an EC50 [2, 4] of 944 nM and an Emax [2, 5] of 81.6%.
`CN1CCCC=C(c2n[nH]c3c(Cl)cccc23)C1` [Example 211, 7-chloro-3-(1-methyl-2,5,6,7-tetrahydro-1H-azepin-3-yl)-1H-indazole] was tested, and the Ki [1, 3] was 1180 nM, the EC50 [2, 4] was 732 nM and the Emax [2, 9] was 59.9%.
`Cc1cccc2c(C34CC3CN(C)C4)n[nH]c12` (stereo not drawn) [Example 227, 7-methyl-3-(3-methyl-3-azabicyclo[3.1.0]hexan-1-yl)-1H-indazole] showed a Ki [1, 3] of 1450 nM, an EC50 [2, 4] of 684 nM and an Emax [2, 9] of 32.5%.
Work on `CN1CC(c2c[nH]c3c(F)cccc23)C1` [Example 260, 7-fluoro-3-(1-methylazetidin-3-yl)-1H-indole] yielded a Ki [1, 3] of 357 nM, an EC50 [2, 4] of 422 nM and an Emax [2, 9] of 63.1%.
With `Clc1cccc2c(C34CNCC3C4)c[nH]c12` (single isomer, unassigned) [Example 278, 3-(3-azabicyclo[3.1.0]hexan-1-yl)-7-chloro-1H-indole] the Ki [1, 11] was 33 nM, the “5HTA Gq Emax (%)” value ([2]; BRET2 Gαq dissociation, HEK293T, normalized to 5-HT) was 58.2% and the EC50 [2, 10] was 9.23 nM.
`CCc1ccc2[nH]cc(C3=CCCN(C)C3)c2c1` [Example 26, 5-ethyl-3-(1-methyl-1,2,5,6-tetrahydropyridin-3-yl)-1H-indole] was tested, and the Ki [1, 6] was 166 nM, the EC50 [2, 7] was 177 nM and the Emax [2, 8] was 64.2%.
Compound `Clc1cccc2c(C3CC4CCC(C3)N4)n[nH]c12` (stereo not drawn) [Example 225, 3-(8-azabicyclo[3.2.1]octan-3-yl)-7-chloro-1H-indazole] has a Ki [1, 3] of 2110 nM, an EC50 [2, 4] of 500 nM and an Emax [2, 9] of 105%.
`Cc1cccc2c(C3CNC3)c[nH]c12` [Example 258, 3-(azetidin-3-yl)-7-methyl-1H-indole] was tested, and the Ki [1, 3] was 674 nM, the EC50 [2, 4] was 444 nM and the Emax [2, 5] was 82.1%.
Work on `Clc1cccc2c(C3=CN4CCC3CC4)c[nH]c12` [Example 250, 3-(7-chloro-1H-indol-3-yl)-1-azabicyclo[2.2.2]oct-2-ene] yielded a Ki [1, 3] of 1630 nM, an EC50 [2, 4] of 1290 nM and an Emax [2, 9] of 73.1%.
Compound `Fc1cccc2c(C34CNCCC3C4)n[nH]c12` (stereo not drawn) [Example 194, 3-(3-azabicyclo[4.1.0]heptan-1-yl)-7-fluoro-1H-indazole] has a Ki [1, 3] of 2480 nM, an EC50 [2, 4] of 795 nM and an Emax [2, 9] of 64.4%.
For `CCCN1CCC=C(c2c[nH]c3ccncc23)C1` [Example 144, 3-(1-propyl-1,2,5,6-tetrahydropyridin-3-yl)-1H-pyrrolo[3,2-c]pyridine], the Ki [1, 3] was 8250 nM, the EC50 [2, 4] was 1180 nM and the Emax [2, 9] was 67.2%.
For `CC(C)c1cccc2c(C3CNC3)c[nH]c12` [Example 262, 3-(azetidin-3-yl)-7-isopropyl-1H-indole], the Ki [1, 3] was 1910 nM, the EC50 [2, 4] was 316 nM and the Emax [2, 9] was 114%.
